Experimental data taken from patent US11220504B2, “Pyrrolo[3,2-d] pyrimidine derivatives for the treatment of viral infections and other diseases” (JANSSEN SCIENCES IRELAND UNLIMITED COMPANY, priority 2012, dated 2022).

What was measured:
human TLR7 = molecular target: T1, human TLR7 (Homo sapiens, UniProt Q9NYK1); assay: TLR7 cellular reporter assay (HEK293, NFκB-luc); type: cell-based; conditions: HEK293 cells transfected with CMV-TLR7 and NFκB-luc, 6 hours incubation; lowest effective concentration
T1 construct: expressed in transfected cells; host or cells: HEK293 cells, transient transfection with CMV-TLR7 plasmid and NFκB-luc plasmid
T1 sequence (Q9NYK1 27-1049): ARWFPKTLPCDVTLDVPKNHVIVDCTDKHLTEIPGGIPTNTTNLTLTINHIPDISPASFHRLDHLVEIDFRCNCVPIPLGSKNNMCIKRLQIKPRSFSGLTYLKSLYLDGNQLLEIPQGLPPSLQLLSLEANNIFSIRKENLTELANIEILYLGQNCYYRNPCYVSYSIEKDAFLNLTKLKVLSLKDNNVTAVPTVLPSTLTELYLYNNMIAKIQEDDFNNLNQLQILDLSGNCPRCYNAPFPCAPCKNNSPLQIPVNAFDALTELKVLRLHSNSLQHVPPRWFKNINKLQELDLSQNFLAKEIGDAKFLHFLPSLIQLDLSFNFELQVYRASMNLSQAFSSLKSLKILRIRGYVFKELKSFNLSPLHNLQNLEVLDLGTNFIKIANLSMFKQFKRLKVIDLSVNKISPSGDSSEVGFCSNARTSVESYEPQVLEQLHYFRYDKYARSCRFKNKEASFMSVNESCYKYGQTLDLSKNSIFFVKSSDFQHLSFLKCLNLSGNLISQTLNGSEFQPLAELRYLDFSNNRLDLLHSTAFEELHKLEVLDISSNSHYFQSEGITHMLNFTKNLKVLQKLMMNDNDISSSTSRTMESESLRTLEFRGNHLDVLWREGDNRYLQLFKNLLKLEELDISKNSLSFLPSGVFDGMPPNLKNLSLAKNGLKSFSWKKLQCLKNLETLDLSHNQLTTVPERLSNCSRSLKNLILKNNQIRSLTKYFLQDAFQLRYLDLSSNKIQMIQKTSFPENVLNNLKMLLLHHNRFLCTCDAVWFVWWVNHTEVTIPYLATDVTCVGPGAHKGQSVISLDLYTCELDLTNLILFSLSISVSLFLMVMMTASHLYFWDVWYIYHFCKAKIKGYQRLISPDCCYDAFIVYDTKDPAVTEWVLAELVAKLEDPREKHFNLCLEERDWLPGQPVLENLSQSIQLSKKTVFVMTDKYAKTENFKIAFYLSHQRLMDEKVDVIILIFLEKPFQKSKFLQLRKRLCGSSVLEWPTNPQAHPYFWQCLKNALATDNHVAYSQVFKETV
Experimental: (§1) The ability of compounds to activate human TLR7 and/or TLR8 was assessed in a cellular reporter assay using HEK293 cells transiently transfected with a TLR7 or TLR8 expression vector and NFκB-luc reporter construct.
(§2) Briefly, HEK293 cells were grown in culture medium (DMEM supplemented with 10% FCS and 2 mM Glutamine). […] Thirty microliters of cells were then dispensed into each well in 384-well plates, where 10 μL of compound in 4% DMSO was already present. Following 6 hours incubation at 37° C., 5% CO2, the luciferase activity was determined by adding 15 μL of Steady Lite Plus substrate (Perkin Elmer) to each well and readout performed on a ViewLux ultraHTS microplate imager (Perkin Elmer). Dose response curves were generated from measurements performed in quadruplicates.

human TLR8 = molecular target: T2, human TLR8 (Homo sapiens, UniProt Q9NR97); assay: TLR8 cellular reporter assay (HEK293, NFκB-luc); type: cell-based; conditions: HEK293 cells transfected with CMV-TLR8 and NFκB-luc, 6 hours incubation; lowest effective concentration
T2 construct: expressed in transfected cells; host or cells: HEK293 cells, transient transfection with TLR8 plasmid and NFκB-luc plasmid
T2 sequence (Q9NR97 27-1041): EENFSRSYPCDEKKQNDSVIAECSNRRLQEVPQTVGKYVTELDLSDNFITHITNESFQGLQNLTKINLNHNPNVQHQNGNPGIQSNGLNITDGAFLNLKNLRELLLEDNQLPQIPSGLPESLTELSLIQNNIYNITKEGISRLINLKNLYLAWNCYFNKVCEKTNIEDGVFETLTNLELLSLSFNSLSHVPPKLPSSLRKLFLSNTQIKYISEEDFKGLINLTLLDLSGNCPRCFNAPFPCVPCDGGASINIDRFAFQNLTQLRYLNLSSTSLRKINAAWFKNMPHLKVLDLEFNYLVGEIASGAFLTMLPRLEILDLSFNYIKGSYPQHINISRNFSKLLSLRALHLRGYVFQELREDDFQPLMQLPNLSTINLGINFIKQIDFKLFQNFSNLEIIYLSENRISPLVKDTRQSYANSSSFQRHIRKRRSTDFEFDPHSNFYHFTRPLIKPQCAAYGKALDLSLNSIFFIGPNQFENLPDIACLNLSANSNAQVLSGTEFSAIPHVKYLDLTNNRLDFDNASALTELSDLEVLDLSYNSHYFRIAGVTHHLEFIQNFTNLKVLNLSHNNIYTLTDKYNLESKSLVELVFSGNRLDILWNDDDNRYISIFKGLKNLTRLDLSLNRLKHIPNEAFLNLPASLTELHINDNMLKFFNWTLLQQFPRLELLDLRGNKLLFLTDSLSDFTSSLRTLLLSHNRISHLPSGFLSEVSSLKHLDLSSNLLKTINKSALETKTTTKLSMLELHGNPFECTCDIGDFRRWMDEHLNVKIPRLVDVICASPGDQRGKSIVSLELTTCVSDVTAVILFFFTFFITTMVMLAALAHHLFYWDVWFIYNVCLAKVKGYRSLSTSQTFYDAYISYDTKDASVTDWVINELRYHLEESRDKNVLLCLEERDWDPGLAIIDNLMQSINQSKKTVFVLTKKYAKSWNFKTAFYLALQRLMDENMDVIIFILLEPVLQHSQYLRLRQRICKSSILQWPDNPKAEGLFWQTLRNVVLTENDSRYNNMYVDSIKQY
Experimental: as §1, §2

[1] = test system: interferon-stimulated responsive elements (ISRE); assay: Activation of ISRE promoter elements by conditioned media from PBMC (HEK-ISREluc); type: cell-based, human; conditions: Homo sapiens; conditioned media from PBMC transferred to HEK-ISREluc cells, 24 hours; lowest effective concentration; read-out: PBMC LEC
Experimental: The potential of compounds to induce IFN-I was also evaluated by measuring the activation of interferon-stimulated responsive elements (ISRE) by conditioned media from PBMC. The ISRE element of sequence […] (SEQ. ID NO:1) is highly responsive to the STAT1-STAT2-IRF 9 transcription factor, activated upon binding of IFN-I to their receptor IFNAR (Clontech, PT3372-5W). […] A HEK293 cell line stably transfected with pISRE-Luc (HEK-ISREluc) was established to profile of the conditioned PBMC cell culture media.
Briefly, PBMCs were prepared from buffy coats of at least two donors using a standard Ficoll centrifugation protocol. Isolated PBMCs were resuspended in RPMI medium supplemented with 10% human AB serum and 2×10^5 cells/well were dispensed into 384-well plates containing compounds (70 μL total volume). After overnight incubation, 10 μL of supernatant was transferred to 384-well plates containing 5×10^3 HEK-ISREluc cells/well in 30 μL (plated the day before). Following 24 hours of incubation, activation of the ISRE elements was measured by assaying luciferase activity using 40 μL/well Steady Lite Plus substrate (Perkin Elmer) and measured with ViewLux ultraHTS microplate imager (Perkin Elmer). The stimulating activity of each compound on the HEK-ISREluc cells was reported as LEC value, defined as the compound concentration applied to the PBMCs resulting in a luciferase activity at least two fold above the standard deviation of the assay. The LEC in turn indicates the degree of ISRE activation on transfer of a defined amount of PBMC culture medium. Recombinant interferon α-2a (Roferon-A) was used as a standard control compound.

SMILES	TLR7 LEC (human TLR7)	TLR8 LEC (human TLR8)	minimal effective concentration [1]
CCC[C@H](CO)Nc1nc(N)nc2ccn(Cc3ccccc3)c12 [Compound 31]	0.22 µM	>25 µM	0.16 µM
CC(C)CNc1nc(N)nc2ccn(Cc3ccccc3)c12 [Compound 32]	0.91 µM	>25 µM	0.52 µM
CCCC(C)Nc1nc(N)nc2ccn(Cc3ccccc3)c12 (stereo not drawn) [Compound 33]	0.03 µM	>25 µM	0.04 µM
COCCNc1nc(N)nc2ccn(Cc3ccccc3)c12 [Compound 34]	0.91 µM	>25 µM	0.54 µM
CCNc1nc(N)nc2ccn(Cc3ccccc3)c12 [Compound 35]	1.49 µM	>25 µM	0.7 µM
Nc1nc(NCCCO)c2c(ccn2Cc2ccccc2)n1 [Compound 36]	1.06 µM	>25 µM	0.59 µM
CCCC[C@@H](CCO)Nc1nc(N)nc2ccn(Cc3ccccc3)c12 [Compound 37]	0.005 µM	>25 µM	0.007 µM
CC[C@H](C)[C@@H](CO)Nc1nc(N)nc2ccn(Cc3ccccc3)c12 [Compound 38]	0.54 µM	>25 µM	0.63 µM
CCC[C@@H](CCO)Nc1nc(N)nc2ccn(Cc3ccncc3)c12 [Compound 39]	0.17 µM	>25 µM	0.009 µM
CCCC[C@@H](CCO)Nc1nc(N)nc2ccn(Cc3ccncc3)c12 [Compound 40]	0.12 µM	24.61 µM	0.004 µM
CCCCNc1nc(N)nc2ccn(Cc3ccc(OC)cc3)c12 [Compound 41]	0.09 µM	>25 µM	0.11 µM
CCCCNc1nc(N)nc2ccn(Cc3ccc(F)cc3)c12 [Compound 42]	0.28 µM	>25 µM	0.16 µM
CCCCNc1nc(N)nc2ccn(Cc3ccccc3F)c12 [Compound 43]	0.11 µM	>25 µM	0.17 µM
CC(CNc1nc(N)nc2ccn(Cc3ccccc3)c12)C1CC1 (stereo not drawn) [Compound 44]	1.51 µM	>25 µM	2.45 µM
Nc1nc(NCc2ccoc2)c2c(ccn2Cc2ccccc2)n1 [Compound 45]	19.9 µM	>25 µM	0.74 µM
CC1CC1CNc1nc(N)nc2ccn(Cc3ccccc3)c12 (stereo not drawn) [Compound 46]	0.83 µM	>25 µM	0.17 µM
CC(C)=CCNc1nc(N)nc2ccn(Cc3ccccc3)c12 [Compound 47]	17.5 µM	>25 µM	1.79 µM
Cc1cc(CNc2nc(N)nc3ccn(Cc4ccccc4)c23)no1 [Compound 48]	0.05 µM	>25 µM	0.03 µM
Cn1ccc(CNc2nc(N)nc3ccn(Cc4ccccc4)c23)n1 [Compound 49]	22.43 µM	>25 µM	2.34 µM
CCCCNc1nc(N)nc2ccn(Cc3cc4ccccc4cn3)c12 [Compound 50]	1.01 µM	>25 µM	0.13 µM
CC(C)CCNc1nc(N)nc2ccn(Cc3ccccc3)c12 [Compound 51]	5.14 µM	>25 µM	0.59 µM
CCCCNc1nc(N)nc2ccn(CC3CCCCC3)c12 [Compound 52]	0.12 µM	>25 µM	0.09 µM
CCCCNc1nc(N)nc2ccn(CC3CC3)c12 [Compound 53]	0.38 µM	>25 µM	0.07 µM
